Laboratory results reported in patent EP3070175A1, “TEST FOR DETERMINING SUSCEPTIBILITY OR RESISTANCE TO POLYMYXINS IN ENTEROBACTERIACEAE” (Université de Fribourg, priority 2015, dated 2016).

Assays:
[1] = test system: M. morganii; experiment: Polymyxin test: colorimetric detection of growth (glucose metabolization, phenol red) in presence of colistin sulphate; assay type: cell-based; set-up: key: +, yellow; -, orange; conditions: strain Mmor; colistin sulphate 3.75 mg/L final; visual colour change, up to 4 h at 37°C
Procedure: (§1) Each inoculum was prepared by mixing 1 öse (10 µl) of a fresh culture of the tested bacteria in 5 ml of sterile NaCl 0.85% (at a density of 3 Mac Farland, i.e. about 10^9 CFU/ml).
(§2) 250 ml of reactive medium was prepared by mixing the compounds hereafter: • a broth powder of a non selective growth medium for bacteria, the Cation-Adjusted Mueller-Hinton broth (MHB-CA) : 6.25 g • a colour indicator, the phenol red : 0.0125 g • sterile distilled water 225 ml • sterile D (+)-glucose (10 %) anhydrous (sterilization by filtration) : 25 ml
(§3) The pH of the final reactive medium was adjusted to 6.6 and 6.7 with HCl 1M.
(§4) Colistin or polymyxin B was added or not at the concentration of 5 mg/L in the reactive medium. Standard colistin sulphate and polymyxin B were from Sigma Aldrich (Saint-Louis, France). Those antibiotic molecule powders were kept at 4°C before their use, whereas polymyxin dilutions were kept at -20°C.
(§5) For each strain, two wells of a plastic sterile plate with 96 shaped wells were inoculated in parallel with and without polymyxin (colistin sulphate or polymyxin B) in order to compare their colour change.
(§6) Plastic sterile plates were from Sarstedt (Nümbrecht, Germany). The tray may be prepared as follows : • 1. 150 µl of reactive medium colistin free (obtained in 1.) in the first line • 2. 150 µl of reactive medium with 5 mg/l of colistin sulphate in the second line (final concentration = 3.75 mg/l) • 3. 50 µl of NaCl alone in the first column (one well colistin-free and one well with colistin sulphate) (medium control) • 4. 50 µl of the bacterial suspension (obtained in 2.) for the control strains and for every strain in the other column (one well colistin-free and one well with colistin)
(§7) After mixing of the bacterial suspension to the reactive medium by pipetting up and down, the final concentration of bacteria was 2.5.10^8 CFU/ml in each well and the final selective concentration of colistin or polymyxin B in the well with polymyxin was 3.75 mg/L.
(§8) The results of the tests were recorded at 10 min (checking for no spontaneous colour change in the well) and then every hour for a maximum of 4 hours by visual inspection. No colour change of the well with colistin sulphate or polymyxin B indicated susceptibility to colistin sulphate or polymyxin B and negativity of those tests. On the contrary, a colour change (orange to yellow) indicates the positivity of the test meaning growth capability (related to glucose metabolism) in presence of colistin sulphate or polymyxin B, i.e. resistance to colistin sulphate or polymyxin B.
(§9) All experiments were repeated in triplicate.

[2] = test system: E. aerogenes; experiment: as above; assay type: cell-based; set-up: key: +, yellow; -, orange; conditions: strain 6 FR; colistin sulphate 3.75 mg/L final; visual colour change, up to 4 h at 37°C
Procedure: as §1, §2, §3, §4, §5, §6, §7, §8, §9

[3] = test system: K. oxytoca; experiment: as above; assay type: cell-based; set-up: key: +, yellow; -, orange; conditions: strain C24; colistin sulphate 3.75 mg/L final; visual colour change, up to 4 h at 37°C
Procedure: as §1, §2, §3, §4, §5, §6, §7, §8, §9

[4] = test system: E. cloacae; experiment: as above; assay type: cell-based; set-up: key: +, yellow; -, orange; conditions: colistin sulphate 3.75 mg/L final, visual colour change, up to 4 h at 37°C
Procedure: as §1, §2, §3, §4, §5, §6, §7, §8, §9

[5] = test system: H. alvei; experiment: as above; assay type: cell-based; set-up: key: +, yellow; -, orange; conditions: strain ER; colistin sulphate 3.75 mg/L final; visual colour change, up to 4 h at 37°C
Procedure: as §1, §2, §3, §4, §5, §6, §7, §8, §9

[6] = test system: C. freundii; experiment: as above; assay type: cell-based; set-up: key: +, yellow; -, orange; conditions: colistin sulphate 3.75 mg/L final, visual colour change, up to 4 h at 37°C
Procedure: as §1, §2, §3, §4, §5, §6, §7, §8, §9

[7] = test system: P. stuartii; experiment: as above; assay type: cell-based; set-up: key: +, yellow; -, orange; conditions: strain Pstu; colistin sulphate 3.75 mg/L final; visual colour change, up to 4 h at 37°C
Procedure: as §1, §2, §3, §4, §5, §6, §7, §8, §9

[8] = test system: E. coli; experiment: as above; assay type: cell-based, Escherichia coli; set-up: key: +, yellow; -, orange; conditions: colistin sulphate 3.75 mg/L final, visual colour change, up to 4 h at 37°C
Procedure: as §1, §2, §3, §4, §5, §6, §7, §8, §9

[9] = test system: M. morganii; experiment: MIC determination, broth microdilution in Cation-Adjusted Mueller-Hinton broth (CLSI); assay type: cell-based; conditions: strain Mmor
Procedure: (§10) Determination of MIC values were performed using the reference technique (broth microdilution in Cation-Adjusted Mueller-Hinton broth) according to the CLSI guidelines. Polymyxin B and colistin (Sigma-Aldrich, Saint-Louis) were tested over a range dilution from 0.12 to 128 µg/ml and 5.10^5 CFU/ml of bacteria in each well was used. Following the EUCAST breakpoints (http://www.eucast.org/), strains with a colistin MICs of ≤ 2 µg/ml were categorized as susceptible, although those with MICs of > 2 µg/ml were resistant.
as §9

[10] = test system: K. oxytoca; experiment: as above; assay type: cell-based; conditions: strain C24
Procedure: as §10, §9

[11] = test system: E. cloacae; experiment: as above; assay type: cell-based; conditions: for Colistin resistance: EUCAST breakpoints
Procedure: as §10, §9

[12] = test system: H. alvei; experiment: as above; assay type: cell-based; conditions: strain ER
Procedure: as §10, §9

[13] = test system: P. stuartii; experiment: as above; assay type: cell-based; conditions: strain Pstu
Procedure: as §10, §9

[14] = test system: S. marcescens; experiment: as above; assay type: cell-based, Serratia marcescens; conditions: strain Smar
Procedure: as §10, §9

colistin sulphate
Results of the method of the invention [1]: + | Results of the method of the invention [2]: - | Results of the method of the invention [3]: + | Results of the method of the invention ([4]; strain 7 FR): - | Results of the method of the invention ([4]; strain C28): + | Results of the method of the invention ([4]; strain C129): - | Results of the method of the invention ([4]; strain C144): - | Results of the method of the invention ([4]; strain HM): + | Results of the method of the invention [5]: + | Results of the method of the invention ([6]; strain 8 FR): - | Results of the method of the invention ([6]; strain C136): - | Results of the method of the invention [7]: + | Results of the method of the invention ([8]; strain 3 FR): - | Results of the method of the invention ([8]; strain 5 FR): - | Results of the method of the invention ([8]; strain 10 FR): - | Results of the method of the invention ([8]; strain 27563): + | Results of the method of the invention ([8]; strain 27837): + | Results of the method of the invention ([8]; strain 27850): + | Results of the method of the invention ([8]; strain 27852): + | Results of the method of the invention ([8]; strain 30742): + | Results of the method of the invention ([8]; strain ATCC 25922): - | Results of the method of the invention ([8]; strain C140): - | Results of the method of the invention ([8]; strain Top10): - | Colistin resistance ([9]; EUCAST breakpoints): + (those with MICs of > 2 µg/ml were resistant) | Colistin MIC ([9]; Natural resistance): >128 mg/L | Colistin resistance ([10]; EUCAST breakpoints): + (those with MICs of > 2 µg/ml were resistant) | Colistin MIC ([10]; mgrB promotor truncated with ISKpn26-like): 64 mg/L | Colistin MIC ([11]; strain 7 FR): 0.12 mg/L | Colistin resistance ([11]; strain 7 FR): - (strains with a colistin MICs of ≤ 2 µg/ml were categorized as susceptible) | Colistin resistance ([11]; strain C28): + (those with MICs of > 2 µg/ml were resistant) | Colistin MIC ([11]; strain C28, resistance mechanism Unknown): 32 mg/L | Colistin MIC ([11]; strain C129): 0.25 mg/L | Colistin resistance ([11]; strain C129): - (strains with a colistin MICs of ≤ 2 µg/ml were categorized as susceptible) | Colistin MIC ([11]; strain C144): 0.25 mg/L | Colistin resistance ([11]; strain C144): - (strains with a colistin MICs of ≤ 2 µg/ml were categorized as susceptible) | Colistin resistance ([11]; strain HM): + (those with MICs of > 2 µg/ml were resistant) | Colistin MIC ([11]; strain HM, resistance mechanism Unknown): >128 mg/L | Colistin resistance ([12]; EUCAST breakpoints): + (those with MICs of > 2 µg/ml were resistant) | Colistin MIC ([12]; resistance mechanism Unknown): 16 mg/L | Colistin resistance ([13]; EUCAST breakpoints): + (those with MICs of > 2 µg/ml were resistant) | Colistin MIC ([13]; Natural resistance): >128 mg/L | Colistin resistance ([14]; EUCAST breakpoints): + (those with MICs of > 2 µg/ml were resistant) | Colistin MIC ([14]; Natural resistance): >128 mg/L
